Laboratory results: patent US11203586B2, “Iridinesulfonamide compound and use method thereof” (Chia Tai Tianqing Pharmaceutical Group Co., Ltd., priority 2016, dated 2021)

The molecules below were run against IDH1 (R132H) (Homo sapiens (Human), UniProt O75874, R132H) (assay: Enzyme assay, NADPH decrease detected with Diaphorase/Resazurin). Details: 40 nM enzyme, 20 μM NADPH, incubated at 23° C. for 16 hours before α-KG; 12 concentrations.
IDH1 (R132H), sequence (O75874 whole entry R132H): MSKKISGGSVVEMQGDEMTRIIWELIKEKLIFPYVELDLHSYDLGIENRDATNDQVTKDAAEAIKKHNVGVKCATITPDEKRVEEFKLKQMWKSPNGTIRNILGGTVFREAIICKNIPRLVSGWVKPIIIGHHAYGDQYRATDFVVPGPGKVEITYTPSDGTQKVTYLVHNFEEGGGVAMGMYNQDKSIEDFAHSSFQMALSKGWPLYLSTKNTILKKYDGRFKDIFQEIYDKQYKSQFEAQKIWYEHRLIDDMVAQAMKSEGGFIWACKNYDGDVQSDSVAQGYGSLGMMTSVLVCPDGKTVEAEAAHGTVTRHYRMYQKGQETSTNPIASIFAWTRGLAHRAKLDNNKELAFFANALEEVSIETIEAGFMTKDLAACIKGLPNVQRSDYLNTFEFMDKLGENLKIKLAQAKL
Assay type: biochemical
Description: Resazurin is a traditional redox dye, and after a redox reaction, it can be reduced from a blue resazurin without fluorescence to a pink fluorescent substance, resorufin, which can be measured and quantified with relative fluorescence unit (RFU) of fluorophotometer (Ex=530-570 nm, Em=590-620 nm). At present, resazurin is widely used for determining the viability of bacteria, cells, etc. and the enzyme activity detection of oxidoreductase. We detected the decrease of cofactor NADPH to determine the inhibitory activity of a compound against IDHm and detected the generation of cofactor NADPH to determine the inhibitory activity of a compound against IDH WT.
The compound was pre-incubated with IDHm and NADPH, and then the reaction was initiated by adding α-KG and performed for certain time under a linear condition.
Then, Diaphorase (lipoamide dehydrogenase) and the corresponding substrate Resazurin were added thereto for detection. Lipoamide dehydrogenase terminated the IDH2m reaction by decreasing the available cofactor NADPH, which oxidized NADPH to NADP, and reduced resazurin to high fluorescent resorufin. The amount of the remaining cofactor NADPH after a specific reaction time was quantified via an easily detectable fluorophore.
The specific operation was as follows: 2.5 μl of the compound diluted in a 3-fold gradient was added to a 384-well plate, followed by adding 5 μL of the reaction buffer (20 mM Tris-HCl, pH 7.5; 150 mM NaCl; 10 mM MgCl2; 0.4 mg/mL BSA (Bovine Serum Albumin) and 2 mM DTT (dithiothreitol)) containing 40 nM IDH1 (R132H/R132C) and 20 μM NADPH. Then, the above test mixture was incubated at 23° C. for 16 hours, and then 2.5 μL of the reaction buffer containing 4 mM α-KG was added to initiate the reaction. After they were incubated for 60 minutes at room temperature, 5 μL of the termination mixture (0.4 U/ml Diaphorase and 20 μM Resazurin) formulated with the reaction buffer was added to convert resazurin to resorufin, so as to measure the amount of the remaining NADPH. After incubating at 23° C. for 10 minutes, fluorescence values were determined through Flexstation 3 at Ex535/Em595. The enzyme activity of each compound was respectively determined at 12 concentrations, and the data were calculated using the software GraFit6.0 (Erithacus Software) to obtain the IC50 value of each compound.
In the case of CC(C)[C@@H]1CN1S(=O)(=O)NCC(=O)N(c1cccc(F)c1)C(C(=O)NC1CCCCC1)c1ccccc1Cl (stereo in doubt) [Example 9, 2-(2-chlorophenyl)-N-cyclohexyl-2-(N-(3-fluorophenyl)-2-((R)-2-isopropylaziridine-1-sulfonylamino)acetamido)acetamide], the IC50 is reported as less than 100 nM.
In the case of O=C(NC1CCCCC1)C(c1ccccc1Cl)N(C(=O)CNS(=O)(=O)N1CC1)c1cccc(F)c1 (centres unmarked) [Example 1, 2-(aziridinyl-1-sulfonylamino)-N-(1-(2-chlorophenyl)-2-(cyclohexylamino)-2-oxoethyl)-N-(3-fluorophenyl)acetamide], the IC50 is reported as less than 20 nM.
For C[C@H](NS(=O)(=O)N1CC1)C(=O)N(c1cccc(F)c1)C(C(=O)NC1CCCCC1)c1ccccc1Cl (some centres unmarked) [Example 2, (2)-2-(aziridine-1-sulfonylamino)-N-(1-(2-chlorophenyl)-2-(cyclohexylamino)-2-oxoethyl)-N-(3-fluorophenyl)propanamide], the IC50 was less than 500 nM.
Molecule C[C@@H](NS(=O)(=O)N1CC1)C(=O)N(c1cccc(F)c1)[C@@H](C(=O)NC1CCCCC1)c1ccccc1Cl [Example 3, (R)-2-(aziridine-1-sulfonylamino)-N—((R)-(2-chlorophenyl)-2-(cyclohexylamino)-2-oxoethyl)-N-(3-fluorophenyl)propanamide] has an IC50 of less than 10000 nM.
C[C@@H](NS(=O)(=O)N1CC1)C(=O)N(c1cccc(F)c1)[C@H](C(=O)NC1CCCCC1)c1ccccc1Cl [Example 4, (R)-2-(aziridine-1-sulfonylamino)-N—((S)-1-(2-chlorophenyl)-2-(cyclohexylamino)-2-oxoethyl)-N-(3-fluorophenyl)propanamide] was tested, and the IC50 was less than 100 nM.
Work on O=C(NC1CCCCC1)C(c1ccccc1Cl)N(C(=O)CCNS(=O)(=O)N1CC1)c1cccc(F)c1 (centres unmarked) [Example 5, 3-(aziridine-1-sulfonylamino)-N-(1-(2-chlorophenyl)-2-(cyclohexylamino)-2-oxoethyl)-N-(3-fluorophenyl)propanamide] yielded an IC50 of less than 20 nM.
Molecule O=C(NC1CCCCC1)C(c1ccccc1Cl)N(C(=O)CCS(=O)(=O)N1CC1)c1cccc(F)c1 (centres unmarked) [Example 6, 3-(aziridin-1-ylsulfonyl)-N-(1-(2-chlorophenyl)-2-(cyclohexylamino)-2-oxoethyl)-N-(3-fluorophenyl)propanamide] has an IC50 of less than 20 nM.
CC(C)[C@@H]1CN1S(=O)(=O)N(CC(=O)N(c1cccc(F)c1)C(C(=O)NC1CCCCC1)c1ccccc1Cl)C(=O)OC(C)(C)C (some centres unmarked) [Example 7] showed an IC50 of less than 10000 nM.
In the case of O=C(NC1CC(F)(F)C1)C(c1ccccc1Cl)N(C(=O)CCNS(=O)(=O)N1CC1)c1cccc(F)c1 (centres unmarked) [Example 8, 3-(aziridine-1-sulfonylamino)-N-(1-(2-chlorophenyl)-2-((3,3-difluorocyclobutyl)amino)-2-oxoethyl)-N-(3-fluorophenyl)propanamide], the IC50 is reported as less than 20 nM.
O=C(NC1CC(F)(F)C1)C(c1ccccc1Cl)N(C(=O)CNS(=O)(=O)N1CC1)c1cncc(F)c1 (centres unmarked) [Example 11, 2-(aziridine-1-sulfonylamino)-N-(1-(2-chlorophenyl)-2-((3,3-difluorocyclobutyl)amino)-2-oxoethyl)-N-(5-fluoropyridin-3-yl)acetamide] was tested, and the IC50 was less than 100 nM.
CN(CC(=O)N(c1cccc(F)c1)C(C(=O)NC1CCCCC1)c1ccccc1Cl)S(=O)(=O)N1CC1 (centres unmarked) [Example 12, 2-(2-chlorophenyl)-N-cyclohexyl-2-(N-(3-fluorophenyl)-2-(N-methylaziridine-1-sulfonylamino)acetamido)acetamide] showed an IC50 of less than 20 nM.
In the case of O=C(NC1CC(F)(F)C1)C(c1ccccc1Cl)N(C(=O)CCCNS(=O)(=O)N1CC1)c1cccc(F)c1 (centres unmarked) [Example 13, 4-(aziridine-1-sulfonylamino)-N-(1-(2-chlorophenyl)-2-((3,3-difluorocyclobutyl)amino)-2-oxoethyl)-N-(3-fluorophenyl)butanamide], the IC50 is reported as less than 20 nM.
For O=C(NC1CC(F)(F)C1)C(c1ccccc1Cl)N(C(=O)CCS(=O)(=O)N1CC1)c1cccc(F)c1 (centres unmarked) [Example 14, 3-(aziridin-1-ylsulfonyl)-N-(1-(2-chlorophenyl)-2-((3,3-difluorocyclobutyl)amino)-2-oxoethyl)-N-(3-fluorophenyl)propanamide], the IC50 was less than 20 nM.
With O=C(NC1CCCCC1)C(c1ccccc1Cl)N(C(=O)CS(=O)(=O)N1CC1)c1cccc(F)c1 (centres unmarked) [Example 15, 2-(aziridin-1-ylsulfonyl)-N-(1-(2-chlorophenyl)-2-(cyclohexylamino)-2-oxoethyl)-N-(3-fluorophenyl)acetamide] the IC50 was less than 20 nM.
O=C(NC1CCCCC1)C(c1ccccc1Cl)N(C(=O)CNS(=O)(=O)N1CC1)c1cc(F)cc(F)c1 (centres unmarked) [Example 16, 2-(aziridine-1-sulfonylamino)-N-(1-(2-chlorophenyl)-2-(cyclohexylamino)-2-oxoethyl)-N-(3,5-difluorophenyl)acetamide] showed an IC50 of less than 20 nM.
For O=C(NC1CCCCC1)C(c1ccccc1Cl)N(C(=O)CNS(=O)(=O)N1CC1)c1cncc(F)c1 (centres unmarked) [Example 17, 2-(aziridine-1-sulfonylamino)-N-(1-(2-chlorophenyl)-2-(cyclohexylamino)-2-oxoethyl)-N-(5-fluoropyridin-3-yl)acetamide], the IC50 was less than 20 nM.
Work on O=C(NC1CCCCC1)[C@@H](c1ccccc1Cl)N(C(=O)[C@@H]1CCCN1S(=O)(=O)N1CC1)c1cccc(F)c1 [Example 18, (S)-1-(aziridin-1-ylsulfonyl)-N—((R)-1-(2-chlorophenyl)-2-(cyclohexylamino)-2-oxoethyl)-N-(3-fluorophenyl)pyrrolidine-2-carboxamide] yielded an IC50 of less than 10000 nM.
O=C(NC1CCCCC1)[C@H](c1ccccc1Cl)N(C(=O)[C@@H]1CCCN1S(=O)(=O)N1CC1)c1cccc(F)c1 [Example 19, (S)-1-(aziridin-1-ylsulfonyl)-N—((S)-1-(2-chlorophenyl)-2-(cyclohexylamino)-2-oxoethyl)-N-(3-fluorophenyl)pyrrolidine-2-carboxamide] was tested, and the IC50 was less than 100 nM.
With O=C(NC1CCCCC1)C(c1ccccc1Cl)N(C(=O)CCCCS(=O)(=O)N1CC1)c1cccc(F)c1 (centres unmarked) [Example 20, 5-(aziridin-1-ylsulfonyl)-N-(1-(2-chlorophenyl)-2-(cyclohexylamino)-2-oxoethyl)-N-(3-fluorophenyl)pentanamide] the IC50 was less than 20 nM.
Work on O=C(NC1CCCCC1)C(c1ccccc1Cl)N(C(=O)CCCS(=O)(=O)N1CC1)c1cccc(F)c1 (centres unmarked) [Example 21, 4-(aziridin-1-ylsulfonyl)-N-(1-(2-chlorophenyl)-2-(cyclohexylamino)-2-oxoethyl)-N-(3-fluorophenyl)butanamide] yielded an IC50 of less than 20 nM.
O=C(NC1CCCCC1)C(c1ccccc1Cl)N(C(=O)C1CC(NS(=O)(=O)N2CC2)C1)c1cccc(F)c1 (centres unmarked) [Example 22, 3-(aziridine-1-sulfonylamino)-N-(1-(2-chlorophenyl)-2-cyclohexylamino-2-oxoethyl)-N-(3-fluorophenyl)cyclobutyl carboxamide] gave an IC50 of less than 20 nM.
Work on O=C(NC1CC(F)(F)C1)C(c1ccccc1Cl)N(C(=O)CNS(=O)(=O)N1CC1)c1cccc(C(F)(F)F)c1 (centres unmarked) [Example 23, 2-(aziridine-1-sulfonylamino)-N-(1-(2-chlorophenyl)-2-((3,3-difluorocyclobutyl)amino)-2-oxoethyl)-N-(3-trifluoromethylphenyl)acetamide] yielded an IC50 of less than 100 nM.
O=C(NC1CCCCC1)C(c1ccccc1Cl)N(C(=O)C1CN(S(=O)(=O)N2CC2)C1)c1cccc(F)c1 (centres unmarked) [Example 24, 1-(aziridin-1-ylsulfonyl)-N-(1-(2-chlorophenyl)-2-cyclohexylamino-2-oxoethyl)-N-(3-fluorophenyl)azetidine-3-carboxamide] showed an IC50 of less than 20 nM.
In the case of O=C(NC1CC(F)(F)C1)[C@@H](c1ccccc1Cl)N(C(=O)CNS(=O)(=O)N1CC1)c1cccc(F)c1 [Example 26, (R)-2-(aziridine-1-sulfonylamino)-N-(1-(2-chlorophenyl)-2-((3,3-difluorocyclobutyl)amino)-2-oxoethyl)-N-(3-fluorophenyl)acetamide], the IC50 is reported as less than 100 nM.
O=C(NC1CCCCC1)C(c1ccccc1Cl)N(C(=O)C1CCN(S(=O)(=O)N2CC2)C1)c1cccc(F)c1 (centres unmarked) [Example 27, 1-(aziridin-1-ylsulfonyl)-N-(1-(2-chlorophenyl)-2-cyclohexylamino-2-oxoethyl)-N-(3-fluorophenyl)pyrrolidine-3-carboxamide] gave an IC50 of less than 20 nM.
For NS(=O)(=O)c1cccc(N(C(=O)CNS(=O)(=O)N2CC2)C(C(=O)NC2CC(F)(F)C2)c2ccccc2Cl)c1 (centres unmarked) [Example 28, 2-(aziridine-1-sulfonylamino)-N-(1-(2-chlorophenyl)-2-((3,3-difluorocyclobutyl)amino)-2-oxoethyl)-N-(3-aminosulfonylphenyl)acetamide], the IC50 was less than 100 nM.
